# From ChEMBL document CHEMBL3885861, “Open TG-GATES”
# Organism: Rattus norvegicus
# Experiment: Open TG-GATES - Regimen: Single
# Format: toxicity, organism-based, Sprague-Dawley
# Parameters: regimen Single, gender Male, age 6 weeks
# Details: in vivo, po, 300 mg/kg, route gavage, dose level Middle; for APTT / Bas / Eos / Fbg / Hb / Ht / Lym / MCH / MCHC / MCV / Mono / Neu / PT / Plat / RBC / Ret / WBC: tissue Blood; for KIDNEY_L / KIDNEY_R / KIDNEY_TOTAL: tissue Kidney; for LIVER: tissue Liver; for A/G / ALP / ALT / AST / BUN / CRE / Ca / Cl / DBIL / GLC / IP / K / LDH / Na / PL / RALB / TBIL / TC / TG / TP / gamma-GTP: tissue Plasma
structure (smiles),measurement,setting,value
Cc1nnc2n1-c1ccc(Cl)cc1C(c1ccccc1Cl)=NC2 [TRIAZOLAM],TERMINAL_BW,3 h,190.9 g
same,APTT,3 h,16.4 s
same,Bas,3 h,0.2%
same,Eos,3 h,1%
same,Fbg,3 h,270.4 mg/dL
same,Hb,3 h,13.9 g/dL
same,Ht,3 h,42.3%
same,Lym,3 h,73.8%
same,MCH,3 h,21 pg
same,MCHC,3 h,33%
same,MCV,3 h,63.6 fL
same,Mono,3 h,3%
same,Neu,3 h,21.4%
same,PT,3 h,13.4 s
same,Plat,3 h,117 x10_4/uL
same,RBC,3 h,665.8 x10_4/ul
same,Ret,3 h,9%
same,WBC,3 h,63.2 x10_2/uL
same,KIDNEY_L,3 h,0.8 g
same,KIDNEY_R,3 h,0.8 g
same,KIDNEY_TOTAL,3 h,1.7 g
same,LIVER,3 h,8.6 g
same,A/G,3 h,0.9
same,ALP,3 h,1451.2 IU/L
same,ALT,3 h,40.2 IU/L
same,AST,3 h,71 IU/L
same,BUN,3 h,9.6 mg/dL
same,CRE,3 h,0.1 mg/dL
same,Ca,3 h,11.3 mg/dL
same,Cl,3 h,103.2 meq/L
same,DBIL,3 h,0.008 mg/dL
same,GLC,3 h,189 mg/dL
same,IP,3 h,10.7 mg/dL
same,K,3 h,4.2 meq/L
same,LDH,3 h,79.4 IU/L
same,Na,3 h,141.4 meq/L
same,PL,3 h,169.4 mg/dL
same,RALB,3 h,2.5 g/dL
same,TBIL,3 h,0.066 mg/dL
same,TC,3 h,90.4 mg/dL
same,TG,3 h,60.8 mg/dL
same,TP,3 h,5.2 g/dL
same,gamma-GTP,3 h,1.8 IU/L
same,TERMINAL_BW,6 h,191.6 g
same,APTT,6 h,17.4 s
same,Bas,6 h,0%
same,Eos,6 h,0.4%
same,Fbg,6 h,282.8 mg/dL
same,Hb,6 h,13.8 g/dL
same,Ht,6 h,42.4%
same,Lym,6 h,77.2%
same,MCH,6 h,20.5 pg
same,MCHC,6 h,32.6%
same,MCV,6 h,63 fL
same,Mono,6 h,2.4%
same,Neu,6 h,18.8%
same,PT,6 h,13.5 s
same,Plat,6 h,123.3 x10_4/uL
same,RBC,6 h,674.2 x10_4/ul
same,Ret,6 h,9.2%
same,WBC,6 h,77.5 x10_2/uL
same,KIDNEY_L,6 h,0.9 g
same,KIDNEY_R,6 h,0.9 g
same,KIDNEY_TOTAL,6 h,1.8 g
same,LIVER,6 h,8.3 g
same,A/G,6 h,0.9
same,ALP,6 h,1395 IU/L
same,ALT,6 h,35.6 IU/L
same,AST,6 h,66.6 IU/L
same,BUN,6 h,10.2 mg/dL
same,CRE,6 h,0.1 mg/dL
same,Ca,6 h,11.2 mg/dL
same,Cl,6 h,103 meq/L
same,DBIL,6 h,0.01 mg/dL
same,GLC,6 h,183.4 mg/dL
same,IP,6 h,10.9 mg/dL
same,K,6 h,4.1 meq/L
same,LDH,6 h,63.2 IU/L
same,Na,6 h,141.8 meq/L
same,PL,6 h,147.6 mg/dL
same,RALB,6 h,2.5 g/dL
same,TBIL,6 h,0.068 mg/dL
same,TC,6 h,81.2 mg/dL
same,TG,6 h,37.6 mg/dL
same,TP,6 h,5.3 g/dL
same,gamma-GTP,6 h,1 IU/L
same,TERMINAL_BW,9 h,193.6 g
same,APTT,9 h,16.7 s
same,Bas,9 h,0%
same,Eos,9 h,0.8%
same,Fbg,9 h,279.6 mg/dL
same,Hb,9 h,13.5 g/dL
same,Ht,9 h,41.2%
same,Lym,9 h,74%
same,MCH,9 h,21.4 pg
same,MCHC,9 h,32.8%
same,MCV,9 h,65.5 fL
same,Mono,9 h,2.2%
same,Neu,9 h,22%
same,PT,9 h,13.5 s
same,Plat,9 h,121.1 x10_4/uL
same,RBC,9 h,629.6 x10_4/ul
same,Ret,9 h,9.5%
same,WBC,9 h,87.2 x10_2/uL
same,KIDNEY_L,9 h,0.9 g
same,KIDNEY_R,9 h,0.8 g
same,KIDNEY_TOTAL,9 h,1.7 g
same,LIVER,9 h,7.6 g
same,A/G,9 h,0.9
same,ALP,9 h,1488.6 IU/L
same,ALT,9 h,32 IU/L
same,AST,9 h,65.2 IU/L
same,BUN,9 h,10 mg/dL
same,CRE,9 h,0.2 mg/dL
same,Ca,9 h,11 mg/dL
same,Cl,9 h,104.4 meq/L
same,DBIL,9 h,0.01 mg/dL
same,GLC,9 h,188 mg/dL
same,IP,9 h,10.6 mg/dL
same,K,9 h,4.4 meq/L
same,LDH,9 h,57.4 IU/L
same,Na,9 h,141.2 meq/L
same,PL,9 h,144.2 mg/dL
same,RALB,9 h,2.4 g/dL
same,TBIL,9 h,0.058 mg/dL
same,TC,9 h,74.2 mg/dL
same,TG,9 h,49.4 mg/dL
same,TP,9 h,5.1 g/dL
same,gamma-GTP,9 h,1.2 IU/L
same,TERMINAL_BW,24 h,207.4 g
same,APTT,24 h,28.1 s
same,Bas,24 h,0%
same,Eos,24 h,1%
same,Fbg,24 h,263.2 mg/dL
same,Hb,24 h,13.5 g/dL
same,Ht,24 h,40.8%
same,Lym,24 h,74.8%
same,MCH,24 h,21 pg
same,MCHC,24 h,33%
same,MCV,24 h,63.6 fL
same,Mono,24 h,2.6%
same,Neu,24 h,21%
same,PT,24 h,13.3 s
same,Plat,24 h,127 x10_4/uL
same,RBC,24 h,643.6 x10_4/ul
same,Ret,24 h,8%
same,WBC,24 h,94.8 x10_2/uL
same,KIDNEY_L,24 h,0.9 g
same,KIDNEY_R,24 h,0.9 g
same,KIDNEY_TOTAL,24 h,1.8 g
same,LIVER,24 h,9.2 g
same,A/G,24 h,0.9
same,ALP,24 h,1802.4 IU/L
same,ALT,24 h,44.4 IU/L
same,AST,24 h,66.2 IU/L
same,BUN,24 h,11.8 mg/dL
same,CRE,24 h,0.2 mg/dL
same,Ca,24 h,11.3 mg/dL
same,Cl,24 h,102.8 meq/L
same,DBIL,24 h,0.018 mg/dL
same,GLC,24 h,180.2 mg/dL
same,IP,24 h,9.2 mg/dL
same,K,24 h,4.5 meq/L
same,LDH,24 h,73.6 IU/L
same,Na,24 h,140.8 meq/L
same,PL,24 h,155.2 mg/dL
same,RALB,24 h,2.6 g/dL
same,TBIL,24 h,0.058 mg/dL
same,TC,24 h,77.6 mg/dL
same,TG,24 h,88 mg/dL
same,TP,24 h,5.4 g/dL
same,gamma-GTP,24 h,1 IU/L
